Experimental data: the supplement of paper PMC10307832

Legend:
Assay in all cases: relative viability (nuclei count vs DMSO), 5 days (fraction); higher = more cells survive
Imatinib + Palbociclib = compound: Cc1ccc(NC(=O)c2ccc(CN3CCN(C)CC3)cc2)cc1Nc1nccc(-c2cccnc2)n1 [Imatinib] + CC(=O)c1c(C)c2cnc(Nc3ccc(N4CCNCC4)cn3)nc2n(C2CCCC2)c1=O [Palbociclib] (partner 0.5 µM)
Method in brief: (§1)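 The day after seeding in 1536-well plates, lung cancer cell lines were treated by pin tool with a single drug, or with a fixed anchor-drug dose together with five library-drug doses (not always all listed) in √10 steps. After 5 days, a combined fix-and-stain solution (final 0.05% Triton X-100, 1% formaldehyde, 1 ug/ml Hoechst) was added. Nuclei counted on 4× images gave relative viability as treated counts over vehicle counts, reported as the median of duplicate plates.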

Imatinib + Navitoclax = compound: Cc1ccc(NC(=O)c2ccc(CN3CCN(C)CC3)cc2)cc1Nc1nccc(-c2cccnc2)n1 [Imatinib] + CC1(C)CCC(c2ccc(Cl)cc2)=C(CN2CCN(c3ccc(C(=O)NS(=O)(=O)c4ccc(N[C@H](CCN5CCOCC5)CSc5ccccc5)c(S(=O)(=O)C(F)(F)F)c4)cc3)CC2)C1 [Navitoclax] (partner 0.5 µM)
Method in brief: as §1

Imatinib + Linsitinib = compound: Cc1ccc(NC(=O)c2ccc(CN3CCN(C)CC3)cc2)cc1Nc1nccc(-c2cccnc2)n1 [Imatinib] + C[C@]1(O)C[C@@H](c2nc(-c3ccc4ccc(-c5ccccc5)nc4c3)c3c(N)nccn32)C1 [Linsitinib] (partner 1 µM)
Method in brief: as §1

Imatinib + Tozasertib = compound: Cc1ccc(NC(=O)c2ccc(CN3CCN(C)CC3)cc2)cc1Nc1nccc(-c2cccnc2)n1 [Imatinib] + Cc1cc(Nc2cc(N3CCN(C)CC3)nc(Sc3ccc(NC(=O)C4CC4)cc3)n2)n[nH]1 [Tozasertib] (partner 0.1 µM)
Method in brief: as §1

| Cell Line | relative viability (Imatinib + Palbociclib; first compound 0.02 µM) | relative viability (Imatinib + Palbociclib; first compound 0.2 µM) | relative viability (Imatinib + Palbociclib; first compound 0.6325 µM) | relative viability (Imatinib + Palbociclib; first compound 2 µM) | relative viability (Imatinib + Navitoclax; first compound 0.02 µM) | relative viability (Imatinib + Navitoclax; first compound 0.06325 µM) | relative viability (Imatinib + Navitoclax; first compound 0.2 µM) | relative viability (Imatinib + Navitoclax; first compound 0.6325 µM) | relative viability (Imatinib + Navitoclax; first compound 2 µM) | relative viability (Imatinib + Linsitinib; first compound 0.02 µM) | relative viability (Imatinib + Linsitinib; first compound 0.06325 µM) | relative viability (Imatinib + Linsitinib; first compound 0.2 µM) | relative viability (Imatinib + Linsitinib; first compound 0.6325 µM) | relative viability (Imatinib + Linsitinib; first compound 2 µM) | relative viability (Imatinib + Tozasertib; first compound 0.02 µM) | relative viability (Imatinib + Tozasertib; first compound 0.06325 µM) | relative viability (Imatinib + Tozasertib; first compound 0.2 µM) | relative viability (Imatinib + Tozasertib; first compound 0.6325 µM) | relative viability (Imatinib + Tozasertib; first compound 2 µM) | relative viability (Imatinib + Palbociclib; first compound 0.06325 µM) |
| --- | --- | --- | --- | --- | --- | --- | --- | --- | --- | --- | --- | --- | --- | --- | --- | --- | --- | --- | --- | --- |
| LXF-289 | 0.602 | 0.655 | 0.556 | 0.578 | 0.98 | 0.944 | 1.08 | 0.907 | 0.924 | 1.03 | 1.05 | 1.08 | 0.892 | 0.935 | 0.22 | 0.162 | 0.21 | 0.232 | 0.187 | – |
| NCI-H23 | 0.455 | 0.521 | 0.467 | 0.479 | 1.04 | 0.916 | 1.1 | 0.738 | 0.87 | 0.535 | 0.641 | 0.588 | 0.546 | 0.598 | 0.441 | 0.37 | 0.322 | 0.285 | 0.269 | 0.66 |
| NCI-H322M | 0.474 | 0.501 | 0.423 | 0.495 | 1.21 | 1.26 | – | 1.17 | 1.13 | 1.01 | 0.895 | – | 0.891 | 0.981 | 0.483 | 0.507 | 0.491 | 0.432 | 0.471 | 0.518 |
| NCI-H441 | 0.22 | 0.229 | 0.229 | 0.233 | 0.647 | 0.675 | 0.606 | 0.612 | 0.572 | 0.644 | 0.485 | 0.573 | 0.47 | 0.546 | 0.58 | 0.644 | 0.667 | 0.612 | 0.412 | 0.213 |
| NCI-H460 | 0.278 | 0.191 | 0.196 | 0.104 | 1.65 | 1.58 | 1.96 | 1.17 | 1.3 | 1.11 | – | 0.964 | 0.801 | 1.02 | 0.445 | 0.576 | 0.417 | 0.0905 | 0.0547 | 0.22 |
| NCI-H520 | 0.25 | 0.198 | 0.242 | 0.213 | 1.24 | 1.14 | 1.18 | 1.04 | 1.12 | 1.09 | 1.48 | 1.02 | 1.14 | 0.988 | 0.474 | 0.509 | 0.366 | 0.424 | – | 0.21 |
| NCI-H647 | 0.532 | 0.402 | 0.375 | 0.407 | 1.42 | 1.36 | 1.14 | 1.12 | 1.17 | 1.43 | 1.44 | 1.25 | 1.13 | 1.18 | 0.554 | 0.242 | 0.0832 | 0.28 | 0.321 | 0.39 |
| NCI-H727 | 0.577 | 0.599 | 0.569 | 0.601 | 0.324 | 0.398 | 0.4 | 0.412 | 0.417 | 0.301 | 0.249 | 0.277 | 0.299 | 0.347 | 0.59 | 0.59 | 0.518 | 0.543 | 0.509 | – |
